Data as given in patent US8952021B2, “Compounds for the prevention and treatment of cardiovascular disease” (Resverlogix Corp., priority 2009, dated 2015).

The compounds below were run on ApoA-I mRNA (assay: Quantification of ApoA-I mRNA in HepG2 cells (real-time PCR)). Settings: fold induction relative to DMSO control, concentration less than or equal to 100 μM.
Type: cell-based
Set-up: key: Active: An active compound was defined as one that caused a ≧20% increase in ApoA-I mRNA at a concentration less than or equal to 100 μM
Experimental: In this example, ApoA-I mRNA in tissue culture cells was quantitated to measure the transcriptional up-regulation of ApoA-I when treated with a compound of the invention.
HepG2 cells (approximately 2×10^5 per well) were placed in a 24-well plate in approximately 400 μL MEM, supplemented with 0.5% (v/v) FBS, 24 h before addition of the compound of interest. At time of harvesting, the spent media was removed from the HepG2 cells and immediately placed on ice (for immediate use) or at −80° C. (for future use) in ApoA-I and albumin ELISAs. The cells remaining in the plate wells were rinsed in 200 μL PBS. PBS was carefully removed to avoid removing any loosely attached cells.
Once the PBS was removed, 85 μL cell lysis solution was added the cells in each well and incubated for 5-10 minutes at room temperature, to allow for complete cell lysis and detachment. mRNA was then prepared using the “mRNA Catcher PLUS plate” from Invitrogen, according to the protocol supplied. After the last wash, as much wash buffer as possible was aspirated without allowing the wells to dry. Elution Buffer (E3, 80 μL) was then added to each well. mRNA was then eluted by incubating the mRNA Catcher PLUS plate with Elution Buffer for 5 minutes at 68° C. and then immediately placing the plate on ice.
The eluted mRNA isolated was then used in a one-step real-time […] reaction, using components of the Ultra Sense Kit together with Applied Biosystems primer-probe mixes. Real-time PCR data was analyzed, using the Ct values, to determine the fold induction of each unknown sample, relative to the control (that is, relative to the control for each independent DMSO concentration).
An active compound was defined as one that caused a ≧20% increase in ApoA-I mRNA at a concentration less than or equal to 100 μM.

Row | SMILES | Effect on ApoA-I mRNA levels
1 | Cn1ccc2cc(-c3nc4ccccc4c(=O)n3-c3ccc(Cl)cc3)ccc21 [Example 83, 3-(4-chlorophenyl)-2-(1-methyl-1H-indol-5-yl)quinazolin-4(3H)-one] | Active
2 | CCC(C)c1ccc(-n2c(-c3ccc(N4CCCCC4)nc3)nc3ccccc3c2=O)cc1 (centres unmarked) [Example 49, 3-(4-sec-butylphenyl)-2-(6-(piperidin-1-yl)pyridin-3-yl)quinazolin-4(3H)-one] | Active
3 | Cc1cc(-c2nc3ccccc3c(=O)n2-c2ccc(NC(=O)C(C)C)cc2)cc(C)c1OCCO [Example 24, N-(4-(2-(4-(2-hydroxyethoxy)-3,5-dimethylphenyl)-4-oxoquinazolin-3(4H)-yl)phenyl)isobutyramide] | Active
4 | CCC(C)c1ccc(-n2c(-c3ccc(C)nc3)nc3ccccc3c2=O)cc1 (centres unmarked) [Example 46, 3-(4-sec-butylphenyl)-2-(6-methylpyridin-3-yl)quinazolin-4(3H)-one] | Active
5 | CCC(C)c1ccc(-n2c(-c3cncc(-c4ccccc4)c3)nc3ccccc3c2=O)cc1 (centres unmarked) [Example 56, 3-(4-sec-butylphenyl)-2-(5-phenylpyridin-3-yl)quinazolin-4(3H)-one] | Active
6 | CCC(C)c1ccc(-n2c(-c3ccc(Cl)nc3)nc3ccccc3c2=O)cc1 (centres unmarked) [Example 39, 3-(4-sec-butylphenyl)-2-(6-chloropyridin-3-yl)quinazolin-4(3H)-one] | Active
7 | CCC(C)c1ccc(-n2c(-c3ccc(OCCO)c(C)c3)nc3ccccc3c2=O)cc1 (centres unmarked) [Example 33, 3-(4-sec-butylphenyl)-2-(4-(2-hydroxyethoxy)-3-methylphenyl)quinazolin-4(3H)-one] | Active
8 | CCC(C)c1ccc(-n2c(-c3cccc4cc[nH]c34)nc3ccccc3c2=O)cc1 (centres unmarked) [Example 88, 3-(4-sec-butylphenyl)-2-(1H-indol-7-yl)quinazolin-4(3H)-one] | Active
9 | CN(C)c1ccc(-n2c(-c3ccc4[nH]ccc4c3)nc3ccccc3c2=O)cc1 [Example 80, 3-(4-(dimethylamino)phenyl)-2-(1H-indol-5-yl)quinazolin-4(3H)-one] | Active
10 | Cc1ccc(-c2nc3ccccc3c(=O)n2-c2ccc(NS(C)(=O)=O)cc2)cn1 [Example 66, N-(4-(2-(6-methylpyridin-3-yl)-4-oxoquinazolin-3(4H)-yl)phenyl)methanesulfonamide] | Active
11 | COC(=O)c1ccc(-n2c(-c3cc(C)c(OCCO)c(C)c3)nc3ccccc3c2=O)cc1 [Example 25, methyl 4-(2-(4-(2-hydroxyethoxy)-3,5-dimethylphenyl)-4-oxoquinazolin-3(4H)-yl)benzoate] | Active
12 | CCC(C)c1ccc(-n2c(-c3ccc(OC)nc3)nc3ccccc3c2=O)cc1 (centres unmarked) [Example 40, 3-(4-sec-butylphenyl)-2-(6-methoxypyridin-3-yl)quinazolin-4(3H)-one] | Active
13 | CCC(C)c1ccc(-n2c(-c3cncnc3)nc3ccccc3c2=O)cc1 (centres unmarked) [Example 45, 3-(4-sec-butylphenyl)-2-(pyrimidin-5-yl)quinazolin-4(3H)-one] | Active
14 | Cc1cc(-c2nc3ccccc3c(=O)n2-c2ccc(C3CCCCC3)cc2)cc(C)c1OCCO [Example 26, 3-(4-cyclohexylphenyl)-2-(4-(2-hydroxyethoxy)-3,5-dimethylphenyl)quinazolin-4(3H)-one] | Active
15 | CCC(C)c1ccc(-n2c(-c3ccc(-c4ccccc4)nc3)nc3ccccc3c2=O)cc1 (centres unmarked) [Example 55, 3-(4-sec-butylphenyl)-2-(6-phenylpyridin-3-yl)quinazolin-4(3H)-one] | Active
16 | CCC(C)c1ccc(-n2c(-c3ccc4[nH]c(CO)cc4c3)nc3ccccc3c2=O)cc1 (centres unmarked) [Example 82, 3-(4-sec-butylphenyl)-2-(2-(hydroxymethyl)-1H-indol-5-yl)quinazolin-4(3H)-one] | Active
17 | CCC(C)c1ccc(-n2c(-c3ccc(N4CCOCC4)nc3)nc3ccccc3c2=O)cc1 (centres unmarked) [Example 71, 3-(4-sec-butylphenyl)-2-(6-morpholinopyridin-3-yl)quinazolin-4(3H)-one] | Active
18 | O=c1c2ccccc2nc(-c2ccc(Oc3ccccc3)nc2)n1-c1ccc(Cl)cc1 [Example 50, 3-(4-chlorophenyl)-2-(6-phenoxypyridin-3-yl)quinazolin-4(3H)-one] | Active

Row | SMILES | Effect on ApoA-I mRNA levels
19 | CCN(CC)c1cncc(-c2nc3ccccc3c(=O)n2-c2ccc(Cl)cc2)c1 [Example 61, 3-(4-chlorophenyl)-2-(5-(diethylamino)pyridin-3-yl)quinazolin-4(3H)-one] | Active
20 | CCC(C)c1ccc(-n2c(-c3cc(C)c(OCCO)c(C)c3)nc3cc(F)ccc3c2=O)cc1 (centres unmarked) [Example 4, 3-(4-sec-butylphenyl)-7-fluoro-2-(4-(2-hydroxyethoxy)-3,5-dimethylphenyl)quinazolin-4(3H)-one] | Active
21 | Cc1cc(-c2nc3ccccc3c(=O)n2-c2ccc(NS(=O)(=O)C(C)C)cc2)cc(C)c1OCCO [Example 31, N-(4-(2-(4-(2-hydroxyethoxy)-3,5-dimethylphenyl)-4-oxoquinazolin-3(4H)-yl)phenyl)propane-2-sulfonamide] | Active
22 | CCC(C)c1ccc(-n2c(-c3ccc(CO)nc3)nc3ccccc3c2=O)cc1 (centres unmarked) [Example 63, 3-(4-sec-butylphenyl)-2-(6-(hydroxymethyl)pyridin-3-yl)quinazolin-4(3H)-one] | Active
23 | CCC(C)c1ccc(-n2c(-c3cncc(Br)c3)nc3ccccc3c2=O)cc1 (centres unmarked) [Example 57, 2-(5-bromopyridin-3-yl)-3-(4-sec-butylphenyl)quinazolin-4(3H)-one] | Active
24 | Cc1cc(-c2nc3ccccc3c(=O)n2-c2ccc(NC=O)cc2)cc(C)c1OCCO [Example 27, N-(4-(2-(4-(2-hydroxyethoxy)-3,5-dimethylphenyl)-4-oxoquinazolin-3(4H)-yl)phenyl)formamide] | Active
25 | CC(=O)Nc1ccc(-n2c(-c3cc(C)c(OCCO)c(C)c3)nc3ccccc3c2=O)cc1 [Example 23, N-(4-(2-(4-(2-hydroxyethoxy)-3,5-dimethylphenyl)-4-oxoquinazolin-3(4H)-yl)phenyl)acetamide] | Active
26 | O=c1c2ccccc2nc(-c2ccc3[nH]ccc3c2)n1-c1ccc(OC(F)(F)F)cc1 [Example 76, 2-(1H-indol-5-yl)-3-(4-(trifluoronnethoxy)phenyl)quinazolin-4(3H)-one] | Active
27 | CCC(C)c1ccc(-n2c(-c3cccnc3)nc3ccccc3c2=O)cc1 (centres unmarked) [Example 35, 3-(4-sec-butylphenyl)-2-(pyridin-3-yl)quinazolin-4(3H)-one] | Active
28 | Cc1cc(-c2nc3ccccc3c(=O)n2-c2ccc(N3CCOCC3)cc2)cc(C)c1OCCO [Example 21, 2-(4-(2-hydroxyethoxy)-3,5-dimethylphenyl)-3-(4-morpholinophenyl)quinazolin-4(3H)-one] | Active
29 | CCN(CC)c1ccc(-c2nc3ccccc3c(=O)n2-c2ccc(Cl)cc2)cn1 [Example 43, 3-(4-chlorophenyl)-2-(6-(diethylamino)pyridin-3-yl)quinazolin-4(3H)-one] | Active
30 | Cc1ccc(-c2nc3ccccc3c(=O)n2-c2ccc(Cl)cc2)cn1 [Example 47, 3-(4-chlorophenyl)-2-(6-methylpyridin-3-yl)quinazolin-4(3H)-one] | Active
31 | O=c1c2ccccc2nc(-c2ccc3cc[nH]c3c2)n1-c1ccc(Cl)cc1 [Example 85, 3-(4-chlorophenyl)-2-(1H-indol-6-yl)quinazolin-4(3H)-one] | Active
32 | CC(C)c1ccc(-n2c(-c3ccc4[nH]ccc4c3)nc3ccccc3c2=O)cc1 [Example 77, 2-(1H-indol-5-yl)-3-(4-isopropylphenyl)quinazolin-4(3H)-one] | Active
33 | CCC(C)c1ccc(-n2c(-c3ccc4[nH]ncc4c3)nc3ccccc3c2=O)cc1 (centres unmarked) [Example 72, 3-(4-sec-butylphenyl)-2-(1H-indazol-5-yl)quinazolin-4(3H)-one] | Active
34 | O=c1c2ccccc2nc(-c2ccc(Cl)nc2)n1-c1ccc(Cl)cc1 [Example 38, 3-(4-chlorophenyl)-2-(6-chloropyridin-3-yl)quinazolin-4(3H)-one] | Active
35 | O=c1c2ccccc2nc(-c2cnc3c(ccn3S(=O)(=O)c3ccccc3)c2)n1-c1ccc(Cl)cc1 [Example 81, 3-(4-chlorophenyl)-2-(1-(phenylsulfonyl)-1H-pyrrolo[2,3-b]pyridin-5-yl)quinazolin-4(3H)-one] | Active
